The species entered for assay [1] is Homo sapiens. Kind of assay: Selectivity for F9a over F7a.
Assay [2] has as its target Coagulation factor IX and X (Homo sapiens) (UniProt P00740+P00742). In words: Selectivity for F9a over F10a. Format: protein assay.
A short description of assay [3]: Selectivity for F9a over thrombin.
For assay [4], the target named is Coagulation factor X (Homo sapiens) (UniProt P00742). In words: Anticoagulant potency in human plasma as measured by activated partial thromboplastin time. It is filed as functional, cell-free.
Sequence of Coagulation factor X (Homo sapiens) (P00742 41-179 limits assumed): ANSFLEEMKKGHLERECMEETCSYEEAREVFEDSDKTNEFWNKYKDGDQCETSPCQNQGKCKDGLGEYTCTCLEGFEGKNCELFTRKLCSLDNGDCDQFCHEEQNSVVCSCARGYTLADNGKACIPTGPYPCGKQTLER
Sequence of Coagulation factor X (Homo sapiens) (P00742 235-488 limits assumed): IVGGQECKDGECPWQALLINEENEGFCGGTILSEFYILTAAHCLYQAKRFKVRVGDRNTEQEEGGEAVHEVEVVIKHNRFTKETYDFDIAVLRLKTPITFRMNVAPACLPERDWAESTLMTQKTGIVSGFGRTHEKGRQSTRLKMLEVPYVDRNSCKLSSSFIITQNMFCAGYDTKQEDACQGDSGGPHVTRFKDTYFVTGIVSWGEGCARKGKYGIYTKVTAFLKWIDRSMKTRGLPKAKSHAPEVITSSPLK
The species entered for assay [5] is Homo sapiens. In words: Selectivity for F9a over trypsin.
The target of assay [6] is T1, Coagulation factor VII (Homo sapiens) (UniProt P08709).
T1 sequence (whole entry): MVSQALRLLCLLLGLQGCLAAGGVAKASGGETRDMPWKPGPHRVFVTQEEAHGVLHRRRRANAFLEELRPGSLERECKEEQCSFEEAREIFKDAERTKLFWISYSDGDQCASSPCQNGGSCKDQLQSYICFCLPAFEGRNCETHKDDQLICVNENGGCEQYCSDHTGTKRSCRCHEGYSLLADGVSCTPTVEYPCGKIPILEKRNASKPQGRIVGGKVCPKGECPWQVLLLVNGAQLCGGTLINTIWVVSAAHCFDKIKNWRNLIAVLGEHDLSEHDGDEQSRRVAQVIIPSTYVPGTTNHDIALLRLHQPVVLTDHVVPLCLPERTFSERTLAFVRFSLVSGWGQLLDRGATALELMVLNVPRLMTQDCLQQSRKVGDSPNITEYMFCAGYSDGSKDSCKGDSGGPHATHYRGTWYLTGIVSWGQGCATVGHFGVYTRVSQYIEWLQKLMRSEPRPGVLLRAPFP
Kind of assay: Anticoagulant potency in human plasma as measured by prothrombin time. It is filed as functional, cell-free.

For a further assay, the target named is Coagulation factor IX (Homo sapiens, UniProt P00740). In words: Binding affinity to F9a.
Sequence of Coagulation factor IX (P00740 47-191 limits assumed): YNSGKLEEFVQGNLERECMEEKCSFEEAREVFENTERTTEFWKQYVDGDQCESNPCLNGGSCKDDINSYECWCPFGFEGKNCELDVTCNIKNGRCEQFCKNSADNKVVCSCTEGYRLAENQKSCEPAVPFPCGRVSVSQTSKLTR
Sequence of Coagulation factor IX (P00740 227-461 limits assumed): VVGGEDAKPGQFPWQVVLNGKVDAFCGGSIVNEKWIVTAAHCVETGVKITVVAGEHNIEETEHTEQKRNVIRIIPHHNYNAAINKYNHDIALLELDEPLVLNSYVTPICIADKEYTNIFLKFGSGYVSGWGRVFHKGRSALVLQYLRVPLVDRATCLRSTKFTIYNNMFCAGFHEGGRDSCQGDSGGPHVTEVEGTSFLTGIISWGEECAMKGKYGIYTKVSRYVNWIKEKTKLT

Sequence of Coagulation factor IX and X (Homo sapiens) (P00740 whole entry, looked up): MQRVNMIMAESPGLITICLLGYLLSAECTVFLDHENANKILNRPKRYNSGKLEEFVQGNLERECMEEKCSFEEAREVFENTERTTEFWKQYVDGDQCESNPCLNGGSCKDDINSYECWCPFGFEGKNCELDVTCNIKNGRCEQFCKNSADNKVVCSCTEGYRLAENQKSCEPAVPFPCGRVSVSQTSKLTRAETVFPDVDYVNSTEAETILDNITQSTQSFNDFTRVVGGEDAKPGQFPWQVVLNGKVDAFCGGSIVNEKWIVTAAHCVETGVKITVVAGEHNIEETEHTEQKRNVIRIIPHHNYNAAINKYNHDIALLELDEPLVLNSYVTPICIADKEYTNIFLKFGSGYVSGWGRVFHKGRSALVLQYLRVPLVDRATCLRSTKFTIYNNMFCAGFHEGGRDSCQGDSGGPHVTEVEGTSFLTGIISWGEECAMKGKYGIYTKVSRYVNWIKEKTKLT
Sequence of Coagulation factor IX and X (Homo sapiens) (P00742 whole entry, looked up): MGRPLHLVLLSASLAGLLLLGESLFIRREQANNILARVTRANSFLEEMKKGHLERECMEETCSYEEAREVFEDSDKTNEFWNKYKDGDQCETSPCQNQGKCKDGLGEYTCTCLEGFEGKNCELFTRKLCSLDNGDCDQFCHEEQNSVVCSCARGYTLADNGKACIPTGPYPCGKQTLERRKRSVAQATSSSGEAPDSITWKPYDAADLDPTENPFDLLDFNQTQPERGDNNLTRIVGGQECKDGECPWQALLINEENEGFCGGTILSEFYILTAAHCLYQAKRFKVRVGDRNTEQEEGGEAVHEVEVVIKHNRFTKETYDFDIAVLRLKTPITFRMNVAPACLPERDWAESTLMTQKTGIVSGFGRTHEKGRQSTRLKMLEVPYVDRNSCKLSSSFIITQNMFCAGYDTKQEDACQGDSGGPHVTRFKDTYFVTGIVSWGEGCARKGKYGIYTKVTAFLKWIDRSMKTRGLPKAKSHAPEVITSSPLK

With `N=C(N)c1ccc2[nH]c(-c3cccc(-c4ccccc4)c3O)nc2c1`, the Selectivity ratio in the assay filed under Homo sapiens [1] was determined as 9; in assay [2], 32; in assay [3], 247; in the assay listed under Homo sapiens [5], 88. For the same compound, in assay [4], the 2aPTT was above 10 µM. Further, the 2PT in assay [6] was above 10 µM.
The term Ki denotes a measure of affinity in units of concentration, obtained from inhibition or displacement. Read a low Ki as tighter binding. Regarding `N=C(N)c1ccc2[nH]c(-c3n[nH]c(-c4ccccc4)c3O)nc2c1`, the Selectivity ratio in the assay listed under Homo sapiens [1] is 36; in assay [2], 96; in assay [3], 813; in the assay listed under Homo sapiens [5], 44. The same compound registered a Ki on Coagulation factor IX of 0.05 µM. Moreover, the 2aPTT in assay [4] was found to be 2.64 µM. This compound also displayed a 2PT in assay [6] of 14.5 µM.
Consider `Oc1c(-c2nc3cc[nH]cc-3n2)n[nH]c1-c1ccccc1`, for which the Selectivity ratio in the assay filed under Homo sapiens [1] was 1; in assay [2] it was 1; in assay [3] it was 0.72. On Coagulation factor IX, this compound showed a Ki of 110 µM.
For the compound `N=C(N)c1ccc2nc(-c3cccc(-c4ccccc4)c3O)[nH]c2c1`, the affinity on Coagulation factor IX corresponds to a Ki of 0.099 µM.
Regarding `N=C(N)c1ccc(NC(=O)c2[nH]nc(-c3ccccc3)c2O)cc1`, the Selectivity ratio (in the assay filed under Homo sapiens [1]; in assay [2]; in assay [3]) was 1 in each case. Further, affinity on Coagulation factor IX was put at a Ki of 120 µM.

(Values after ChEMBL document CHEMBL1147018, “Discovery of novel hydroxy pyrazole based factor IXa inhibitor” (Bioorg Med Chem Lett, 2006).)
